Assay results published in patent US7655778B2, “SISP-1, a novel p53 target gene and use thereof” (priority 2006, dated 2010).

What was measured:
[1] = test system: IMR90 normal diploid fibroblasts; experiment: Northern blot of SISP-1 mRNA induction by genotoxic drugs; type: cell-based; conditions: IMR90 cells; etoposide 50 μM or CPT 600 nM, 24-48 hours; FIG. 4A
Procedure: IMR90 normal diploid fibroblasts (Obtained from ATCC) were cultured in Dulbecco's modified Eagle's medium (DMEM, Invitrogen)) containing 10% fetal bovine serum (FBS, Hyclone), 100 units/ml of penicillin, and 100 μg/ml of streptomycin at 37° C. […] Then, total RNA was extracted, denatured, electrophoresed through a 1% agarose-formaldehyde gel and transferred to a nylon membrane. Hybridization was performed with ^32P-labeled probes, SISP1, p21 or 36B4 (a loading control) prepared by the randomly primed DNA labeling method.

[2] = test system: HCT116 colon carcinoma cells; experiment: Cell death Elisa (DNA fragmentation) after adenoviral SISP-1 infection; type: cell-based, human; conditions: etoposide 30 μM, 24 hours, 12 hour post infection
Procedure: (§1) Next, the inventor investigated the apoptotic effects of SISP-1 expression in human colon cancer cells and breast carcinoma cells by using adenovirus expressing SISP-1. […] Adenoviruses expressing HA-tagged SISP-1 (Ad-SISP-1) or GFP (Ad-GFP as a control) were generated, amplified and titrated. HCT 116 colon carcinoma cells and MDAMB435 breast cancer cells were grown to 50-70% confluency and infected with recombinant adenovirus at multiplicity of infection (MOI) of 15-30. […] Then, cell death rate was measured by DNA fragmentation assay (Cell death Elisa kit, Roche).

[3] = test system: MDAMB435 breast cancer cells; experiment: as above; type: cell-based, human; conditions: etoposide 30 μM, 24 hours, 12 hour post infection
Procedure: as §1

U2OS osteosarcoma cells [4] = experiment: Cell-Death Elisa, tetracycline-inducible SISP-1 plus etoposide; type: cell-based; conditions: SISP-1 or etoposide (15 μM) alone, FIG. 9A
Procedure: U2OS-tet-on-SISP-1 cells were generated by isolating tetracycline regulated stable-clones expressing SISP-1 upon tetracycline addition (doxycycline, Sigma). U2OS-SISP-1 cells were cultured in the presence or absence of doxycycline (1 μg/ml) for 24 hours.

U2OS osteosarcoma cells [5] = experiment: Etoposide-induced cell death with inducible SISP-1 (FIG. 10); type: cell-based; conditions: over 48 hours
Source text: (§2) The present inventor further examined whether SISP-1 could also sensitize U2OS cells that is known to be quite resistant to chemo-drugs.
(§3) The inventor re-evaluated this effect in a rapidly growing human bladder carcinoma cell line, EJ, since SISP-1 may be used a strong candidate as a new sensitizing molecule that improves the therapeutic efficacy and minimizes the toxicity of chemo-drugs. To further confirm the sensitizing effects of SISP-1 expression in a combination of chemo-drugs, we generated tumor cells containing the tetracycline-regulated inducible expression of SISP-1 using U2OS and EJ lines.

[6] = test system: EJ bladder carcinoma cells; experiment: as above; type: cell-based, human; conditions: over 48 hours
Source text: as §2, §3

| Structure (SMILES) | expression of SISP-1 mRNA [1] | sensitization of SISP-1 overexpressing cells by etoposide [2] | sensitization of SISP-1 overexpressing cells by etoposide [3] | cell death by single treatment (U2OS osteosarcoma cells [4]) | cell death by etoposide itself (U2OS osteosarcoma cells [5]) | cell death by etoposide itself [6] |
| --- | --- | --- | --- | --- | --- | --- |
| CC[C@@]1(O)C(=O)OCc2c1cc1n(c2=O)Cc2cc3ccccc3nc2-1 [CPT, camptothecin] | induced | – | – | – | – | – |
| COc1cc([C@@H]2c3cc4c(cc3[C@@H](O[C@@H]3O[C@@H]5CO[C@@H](C)O[C@H]5[C@H](O)[C@H]3O)[C@H]3COC(=O)[C@H]23)OCO4)cc(OC)c1O [etoposide, reference compound] | – | selectively sensitized | selectively sensitized | did not induce cell death | induced a limited cell death | induced a limited cell death |
